Data from US20110172296A1, “MODULATION OF TRANSFORMING GROWTH FACTOR-BETA 1 EXPRESSION” (priority 2010, published 2011).
Values joined by “and” are separate entries in the source; they are usually repeats but may differ in a detail not shown here. Identical values can stand only once. In the oligonucleotide strings, read from the 5' end, every base follows the letter of its sugar. An asterisk marks phosphorothioate; unmarked linkages are phosphodiester. Other units and linkages are bracketed, terminal groups are in braces. A string of capitals states the bases alone. e = 2'-O-(2-methoxyethyl) (MOE); [5mC] = 5-methylcytosine; d = 2'-deoxy (DNA)

Test system: human TGF-beta1 mRNA
Assay: Antisense inhibition of human TGF-beta1 mRNA in HuVEC cells, single 10 nM dose, Lipofectamine 2000 (Example 2)
Type: cell-based
Details: for % inhibition: 10 nM oligonucleotide, HuVEC, relative to untreated control cells, gapmers targeted to SEQ ID NO: 2; for inhibition of a TGF-beta1 mRNA: threshold lists of Oligo IDs, 10 nM
Experimental: Antisense oligonucleotides targeted to a TGF-beta1 nucleic acid were tested for their effects on TGF-beta1 mRNA in vitro. Cultured HuVEC cells at a density of 5,000 cells per well were transfected using Lipofectamine™ 2000 reagent with 10 nM antisense oligonucleotide for 4 hours. After a recovery period of approximately 24 hours, RNA was isolated from the cells and TGF-beta1 mRNA levels were measured by quantitative real-time PCR. TGF-beta1 mRNA levels were adjusted according to total RNA content, as measured by RIBOGREEN®. Results are presented as percent inhibition of TGF-beta1, relative to untreated control cells.
The chimeric antisense oligonucleotides in Tables 1 and 2 were designed as 2-13-5 MOE gapmers. Antisense molecules with this motif targeting TGF-beta1 are unique, and represent a novel chemical structure for an ASO directed against this target. The gapmers are 20 nucleotides in length, wherein the central gap segments are comprised of thirteen 2′-deoxynucleotides and are flanked on the 5′ side by wings comprising two nucleotides each and on the 3′ side by wings comprising five nucleotides each. Each nucleotide in the 5′ wing segment and each nucleotide in the 3′ wing segment has a 2′-MOE modification. The internucleoside linkages throughout each gapmer are phosphorothioate (P═S) linkages. All cytosine residues throughout each gapmer are 5-methylcytosines. “Target start site” indicates the 5′-most nucleotide to which the gapmer is targeted. “Target stop site” indicates the 3′-most nucleotide to which the gapmer is targeted. Each gapmer listed in Table 1 is targeted to SEQ ID NO: 1 (GENBANK Accession No. NM_000660.3). Each gapmer listed in Table 2 is targeted to SEQ ID NO: 2 (GENBANK Accession No. NT 011109.15 truncated from 14103000 to […]).

Row | Substance | % inhibition | inhibition of a TGF-beta1 mRNA
1 | 414045 (antisense eA*eG*d[5mC]*d[5mC]*dA*dG*dT*dT*dT*d[5mC]*dT*dT*d[5mC]*dT*dG*e[5mC]*e[5mC]*eA*eG*eT) [compound 414045] | 80% | 60% and 65% and 70% and 75% and 80%
2 | 414046 (antisense eG*eT*dG*dA*dA*dA*d[5mC]*dA*d[5mC]*d[5mC]*dG*dA*dG*dG*dA*e[5mC]*eA*e[5mC]*e[5mC]*eT) [compound 414046] | 67% | 60% and 65%
3 | 414047 (antisense e[5mC]*e[5mC]*dT*dG*d[5mC]*d[5mC]*d[5mC]*d[5mC]*dT*dT*dG*dG*dT*dG*dG*eA*eA*eG*e[5mC]*eG) [compound 414047] | 41% | –
4 | 414048 (antisense eG*eG*dT*dT*dT*d[5mC]*d[5mC]*d[5mC]*d[5mC]*dA*dG*d[5mC]*d[5mC]*dA*d[5mC]*e[5mC]*e[5mC]*eT*eG*eA) [compound 414048] | 61% | 60%
5 | 414049 (antisense e[5mC]*eT*dG*dA*dG*dT*dG*dG*dG*dA*dG*d[5mC]*d[5mC]*d[5mC]*d[5mC]*eG*e[5mC]*e[5mC]*e[5mC]*eG) [compound 414049] | 53% | –
6 | 414050 (antisense eT*eT*d[5mC]*d[5mC]*d[5mC]*d[5mC]*dA*dA*dG*dG*d[5mC]*dT*d[5mC]*dT*dG*eA*eA*e[5mC]*e[5mC]*eA) [compound 414050] | 82% | 60% and 65% and 70% and 75% and 80%
7 | 414051 (antisense eG*eT*d[5mC]*dA*dG*dT*dG*dT*dT*dA*dA*dA*dG*dG*dA*eA*e[5mC]*e[5mC]*eT*e[5mC]) [compound 414051] | 36% | –
8 | 414052 (antisense eA*e[5mC]*dA*d[5mC]*dA*dT*dG*dT*dG*d[5mC]*dA*dT*dT*dT*dG*eT*eT*eG*eG*eG) [compound 414052] | 52% | –
9 | 414053 (antisense eT*eT*dG*dG*d[5mC]*d[5mC]*d[5mC]*dG*dG*dA*dG*dG*dT*dT*dA*e[5mC]*eT*e[5mC]*eA*eG) [compound 414053] | 52% | –
10 | 414054 (antisense eT*eG*dA*dA*dG*dT*dT*d[5mC]*dA*dT*dT*d[5mC]*dT*dG*dG*eG*eT*eA*eG*eG) [compound 414054] | 51% | –
11 | 414055 (antisense eA*eT*dT*dA*dG*dT*dT*dT*dT*d[5mC]*d[5mC]*dA*d[5mC]*d[5mC]*d[5mC]*eT*eT*eA*eA*e[5mC]) [compound 414055] | 53% | –
12 | 414056 (antisense eT*eT*dA*dT*dA*d[5mC]*d[5mC]*d[5mC]*dG*dT*dT*dT*dA*dA*dT*eA*eG*eA*eT*eG) [compound 414056] | 41% | –
13 | 414057 (antisense eT*eA*d[5mC]*dA*d[5mC]*dT*dG*dG*dT*d[5mC]*dA*d[5mC]*dT*d[5mC]*dA*eA*eT*e[5mC]*eA*eT) [compound 414057] | 58% | –
14 | 414059 (antisense e[5mC]*eA*dA*dG*dA*d[5mC]*dA*dG*dA*dG*dT*dG*dA*d[5mC]*dT*e[5mC]*eT*eA*eG*eA) [compound 414059] | 66% | 60% and 65%
15 | 414060 (antisense eA*e[5mC]*dA*dG*d[5mC]*dA*dA*dT*dA*dA*d[5mC]*dA*dT*dT*dA*eA*eG*e[5mC]*eT*e[5mC]) [compound 414060] | 31% | –
16 | 414061 (antisense eT*eG*dT*dG*dT*dG*dA*d[5mC]*d[5mC]*dA*dT*dG*dG*dG*d[5mC]*eA*eG*eT*eT*eA) [compound 414061] | 69% | 60% and 65%
17 | 414062 (antisense e[5mC]*e[5mC]*d[5mC]*d[5mC]*dT*dA*dA*dA*dA*dT*dG*d[5mC]*dA*dG*dA*eG*eT*eA*eA*eG) [compound 414062] | 72% | 60% and 65% and 70%
18 | 414063 (antisense eA*eA*dG*dT*d[5mC]*dG*dA*d[5mC]*dT*dA*dA*dG*dG*d[5mC]*dT*eG*eG*e[5mC]*eA*e[5mC]) [compound 414063] | 80% | 60% and 65% and 70% and 75% and 80%
19 | 414064 (antisense eT*eG*dT*dG*dA*d[5mC]*d[5mC]*dT*dT*dG*dA*dG*dG*dA*dA*eG*eT*eG*eG*eT) [compound 414064] | 61% | 60%
20 | 414065 (antisense eA*eA*dA*dT*dG*dA*dA*dG*dG*dG*dA*dG*dG*d[5mC]*dG*eA*eT*e[5mC]*eA*eG) [compound 414065] | 24% | –

Row | Substance | % inhibition | inhibition of a TGF-beta1 mRNA
21 | 414066 (antisense eG*eT*dG*dG*dA*d[5mC]*d[5mC]*dT*dT*dG*dT*dA*dA*d[5mC]*d[5mC]*eA*eG*e[5mC]*e[5mC]*eG) [compound 414066] | 80% | 60% and 65% and 70% and 75% and 80%
22 | 414067 (antisense eT*e[5mC]*d[5mC]*dT*dA*dG*dG*dA*dT*dG*d[5mC]*dA*dA*dA*dG*eA*eG*eT*e[5mC]*eT) [compound 414067] | 71% | 60% and 65% and 70%
23 | 414068 (antisense eT*e[5mC]*dT*dG*d[5mC]*dA*dA*d[5mC]*dA*dT*d[5mC]*d[5mC]*dA*dA*dA*eA*eT*eA*eG*eT) [compound 414068] | 53% | –
24 | 414069 (antisense e[5mC]*eT*dA*dT*dG*dA*dG*dT*dT*dA*dA*d[5mC]*dA*dT*dT*e[5mC]*e[5mC]*e[5mC]*eT*e[5mC]) [compound 414069] | 62% | 60%
25 | 414070 (antisense eG*eA*d[5mC]*dT*dA*dA*dT*dG*dT*dT*d[5mC]*dT*dA*dT*dA*eA*eA*e[5mC]*e[5mC]*e[5mC]) [compound 414070] | 54% | –
26 | 414071 (antisense eT*eA*dG*dA*dA*dG*dT*d[5mC]*dA*dT*dT*dT*d[5mC]*dT*dA*eA*eT*eG*eA*eT) [compound 414071] | 0% | –
27 | 414072 (antisense eG*e[5mC]*d[5mC]*dG*dA*dA*dG*dG*dT*dG*dT*dT*dT*dT*d[5mC]*eT*eT*eG*e[5mC]*e[5mC]) [compound 414072] | 48% | –
28 | 414073 (antisense e[5mC]*eT*dT*d[5mC]*d[5mC]*d[5mC]*d[5mC]*dA*dA*dA*d[5mC]*dA*dG*dG*d[5mC]*eT*eT*e[5mC]*e[5mC]*eA) [compound 414073] | 65% | 60% and 65%
29 | 414074 (antisense eA*eA*dG*dT*dG*dA*d[5mC]*d[5mC]*d[5mC]*d[5mC]*dA*dG*dG*dA*d[5mC]*eA*eA*eA*e[5mC]*eA) [compound 414074] | 24% | –
30 | 414075 (antisense eG*eA*dT*dT*dA*dG*d[5mC]*d[5mC]*dA*dA*dT*d[5mC]*dA*d[5mC]*dT*e[5mC]*eA*eG*eG*eT) [compound 414075] | 75% | 60% and 65% and 70% and 75%
31 | 414076 (antisense eG*eT*dT*d[5mC]*d[5mC]*d[5mC]*d[5mC]*dA*dG*d[5mC]*dT*dA*d[5mC]*d[5mC]*dT*eA*eG*e[5mC]*e[5mC]*eA) [compound 414076] | 57% | –
32 | 414077 (antisense eT*e[5mC]*d[5mC]*dA*dG*dG*d[5mC]*d[5mC]*dT*dT*dT*dG*d[5mC]*dA*d[5mC]*eA*eG*eG*e[5mC]*eT) [compound 414077] | 71% | 60% and 65% and 70%
33 | 414078 (antisense eT*eG*dG*dG*d[5mC]*dA*dA*dT*dT*dA*dT*dT*dG*dA*dA*eT*eA*eA*eA*eA) [compound 414078] | 18% | –
34 | 414079 (antisense eG*eT*d[5mC]*dT*dT*dG*dG*dT*dT*dA*dT*d[5mC]*dA*d[5mC]*dT*eA*eT*eG*eT*e[5mC]) [compound 414079] | 62% | 60%
35 | 414080 (antisense eT*eT*dG*dA*d[5mC]*d[5mC]*dA*dA*dG*dA*d[5mC]*dA*dG*dA*dT*eG*eA*eG*e[5mC]*eT) [compound 414080] | 54% | –
36 | 414081 (antisense eG*e[5mC]*dT*dT*dG*dG*dG*dA*d[5mC]*dT*d[5mC]*dA*dG*d[5mC]*dA*eT*eT*eG*eA*e[5mC]) [compound 414081] | 49% | –
37 | 414082 (antisense eG*eA*dG*dA*dG*dG*dG*dA*dA*dG*d[5mC]*d[5mC]*dA*dG*dT*e[5mC]*eT*eG*eA*eG) [compound 414082] | 19% | –
38 | 414083 (antisense eA*eA*d[5mC]*d[5mC]*dT*dG*dG*dA*dG*d[5mC]*dA*d[5mC]*d[5mC]*dT*dG*eG*eT*e[5mC]*eA*eG) [compound 414083] | 42% | –
39 | 414084 (antisense eT*e[5mC]*dA*dG*d[5mC]*d[5mC]*d[5mC]*dA*dA*dG*d[5mC]*dA*d[5mC]*dA*dG*e[5mC]*eA*eG*e[5mC]*eA) [compound 414084] | 75% | 60% and 65% and 70% and 75%
